Source: patent publication US20040039052A1, “Urinary incontinence therapy” (priority 1997, published 2004)

Key:
rats = details: cited from earlier work
rat urinary bladders = details: anesthetized rats; repeated perfusions; cited from earlier work
[1] = system: vanilloid receptor-mediated release of tachykinins in the rat urinary bladder; details: rat urinary bladder; cited from earlier work
bladder afferents = details: rats; intravesicular 10-100 μmol; cited from earlier work
[2] = solubility and stability of RTX solutions; format: physicochemical
Procedure: The molecular weight of RTX is 628.72 for the clinical studies described herein. A 10 μM stock solution, 6.3 μg/mL was prepared by dissolving 6.32 mg of 99.5% pure RTX in 1000 mL absolute ethanol. Solutions for therapeutic use were diluted from the ethanolic stock solution into sterile normal saline (0.9% w/v NaCl) or a saline-ethanol mixture such that the final solution was 10% (v/v) ethanol. Therapeutic efficacy was tested for RTX concentrations of 1 μM, 0.1 μM and 0.05 μM. […] Prior to administration, RTX solutions were sterilized by filtration.
However, the compounds are soluble in ethanol. Pure ethanol cannot be instilled into the bladder because it causes severe pain and irritation of the bladder mucosa. […] The foregoing solution, after filter sterilization, can be directly instilled into the urinary bladder. A typical instillation volume is 100 ml, although it is possible to instill somewhat larger or smaller volumes, as is understood in the art.

[3] = system: patients with MS (detrusor hyperreflexia); test: separate study: RTX instillation in patients with MS; format: in vivo, human
Procedure: A separate study was undertaken with administration of 0.1 μM RTX to a group of 6 patients with MS. […] One patient was bedridden with an indwelling catheter. Despite the catheter, occasional bursts of detrusor hyperreflexia caused explosive expulsions of urine such that urine leaked around the catheter. No urinary dynamic measurements were taken but 100 ml of 1 μM solution was administered. […] The remaining four patients were all on crutches or in wheelchairs. They were on scheduled intermittent self-catheterizations and remained so.

[4] = system: normal human volunteers and patients with unstable detrusor; details: 10^−8M (0.01 μM) RTX intravesicular, cited from earlier work
[5] = four MS patients, one month after treatment

In the case of `C=C(C)[C@]12C[C@@H](C)[C@@]34O[C@](Cc5ccccc5)(O[C@@H]1[C@@H]3C=C(COC(=O)Cc1ccc(O)c(OC)c1)C[C@]1(O)C(=O)C(C)=C[C@@H]41)O2` [RTX, resiniferatoxin], the “pain upon intravesical administration” value (rats) is given as “pain induced by intravesical administration of RTX”, the “desensitizing effect of bladder perfusion” value (rat urinary bladders) is given as “desensitization was occurring” and the “desensitization to repeated doses” value [1] is given as “Desensitization to repeated doses of RTX was observed”. The “potency relative to CAP” value [1] was 1000 times, the “desensitization of bladder afferents” value (bladder afferents) was “long-lasting desensitization of bladder afferents” and the “stability of stock solution” value ([2]; absolute ethanol, stored in the dark, preferably refrigerated) was “stably maintained”. For the same molecule, the solubility in water ([2]; completely aqueous medium, therapeutic dose) was “insufficiently soluble in water”, the stability of solutions ([2]; ethanolic stock and dilutions in saline, 10% (v/v) ethanol, 4° C., shielded from light) was “stable under refrigeration (4° C.) shielded from light” and the “solubility after dilution of ethanolic solution into aqueous medium” value ([2]; normal saline, not greater than 20% (v/v) ethanol) was “RTX remains in solution”. For the same molecule, the side effects ([3]; even at a dose of 1.0 μM RTX) was “No side effects, particularly no meaningful burning or irritation were observed”, the Capacity [3, 5] was “increased in all patients” and the urine loss pressure [3, 5] was “decreased in all four although minimally in two”. For the same molecule, the sensations upon administration ([4]; human subjects) was “no micturition reflex or burning upon administration” and the “volume required to elicit first desire to void” value ([4]; patients having unstable detrusor) was “Three of five patients having unstable detrusor reported an increased volume”.
